Source: patent publication US12559464B2, “Quinazolinone dione compounds and uses thereof” (Edgewise Therapeutics, Inc., priority 2023, dated 2026)

Key:
[1] = system: myosin ATPase, Rabbit Psoas myofibrils; test: Myofibril ATPase assay, rabbit psoas (skeletal) myofibrils; assay type: biochemical; conditions: Rabbit Psoas Prep pCa 25 GEOM_MEAN; for Rabbit Psoas EC25 (Y75 value): concentration required to reduce myosin ATP-ase activity by 25%
[2] = molecular target: T1, myosin ATPase, Porcine Ventricle myofibrils (Sus scrofa, UniProt P79293); test: Myofibril ATPase assay, porcine ventricle myofibrils; assay type: biochemical, porcine (Yucatan minipigs); conditions: concentration required to reduce myosin ATP-ase activity by 25%; Porcine Ventricle Prep pCa 25 GEOM_MEAN
T1 construct: Myofibrils from porcine cardiac muscle was isolated from the left ventricle of Yucatan minipigs; tissue Exemplar Genetics; host or cells: left ventricle of Yucatan minipigs, myofibrils
Summary of the method: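 Myofibrils from Yucatan minipig left ventricle; ADP production coupled via PK-LDH to NADH loss, read kinetically at 340 nm every 1.5–2 min for 75 min in PIPES/MgCl2 pH 7.0 buffer. Slopes normalized to vehicle and fit to 4-parameter logistic; values are concentrations giving 75% (inhibition) or 125% (activation) of vehicle activity.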

[3] = system: myosin ATPase, Porcine Atria myofibrils; test: Myofibril ATPase assay, porcine atria myofibrils; assay type: biochemical; conditions: concentration required to reduce myosin ATP-ase activity by 25%; Porcine Atria Prep pCa 25 GEOM_MEAN

T1 sequence (P79293 whole entry): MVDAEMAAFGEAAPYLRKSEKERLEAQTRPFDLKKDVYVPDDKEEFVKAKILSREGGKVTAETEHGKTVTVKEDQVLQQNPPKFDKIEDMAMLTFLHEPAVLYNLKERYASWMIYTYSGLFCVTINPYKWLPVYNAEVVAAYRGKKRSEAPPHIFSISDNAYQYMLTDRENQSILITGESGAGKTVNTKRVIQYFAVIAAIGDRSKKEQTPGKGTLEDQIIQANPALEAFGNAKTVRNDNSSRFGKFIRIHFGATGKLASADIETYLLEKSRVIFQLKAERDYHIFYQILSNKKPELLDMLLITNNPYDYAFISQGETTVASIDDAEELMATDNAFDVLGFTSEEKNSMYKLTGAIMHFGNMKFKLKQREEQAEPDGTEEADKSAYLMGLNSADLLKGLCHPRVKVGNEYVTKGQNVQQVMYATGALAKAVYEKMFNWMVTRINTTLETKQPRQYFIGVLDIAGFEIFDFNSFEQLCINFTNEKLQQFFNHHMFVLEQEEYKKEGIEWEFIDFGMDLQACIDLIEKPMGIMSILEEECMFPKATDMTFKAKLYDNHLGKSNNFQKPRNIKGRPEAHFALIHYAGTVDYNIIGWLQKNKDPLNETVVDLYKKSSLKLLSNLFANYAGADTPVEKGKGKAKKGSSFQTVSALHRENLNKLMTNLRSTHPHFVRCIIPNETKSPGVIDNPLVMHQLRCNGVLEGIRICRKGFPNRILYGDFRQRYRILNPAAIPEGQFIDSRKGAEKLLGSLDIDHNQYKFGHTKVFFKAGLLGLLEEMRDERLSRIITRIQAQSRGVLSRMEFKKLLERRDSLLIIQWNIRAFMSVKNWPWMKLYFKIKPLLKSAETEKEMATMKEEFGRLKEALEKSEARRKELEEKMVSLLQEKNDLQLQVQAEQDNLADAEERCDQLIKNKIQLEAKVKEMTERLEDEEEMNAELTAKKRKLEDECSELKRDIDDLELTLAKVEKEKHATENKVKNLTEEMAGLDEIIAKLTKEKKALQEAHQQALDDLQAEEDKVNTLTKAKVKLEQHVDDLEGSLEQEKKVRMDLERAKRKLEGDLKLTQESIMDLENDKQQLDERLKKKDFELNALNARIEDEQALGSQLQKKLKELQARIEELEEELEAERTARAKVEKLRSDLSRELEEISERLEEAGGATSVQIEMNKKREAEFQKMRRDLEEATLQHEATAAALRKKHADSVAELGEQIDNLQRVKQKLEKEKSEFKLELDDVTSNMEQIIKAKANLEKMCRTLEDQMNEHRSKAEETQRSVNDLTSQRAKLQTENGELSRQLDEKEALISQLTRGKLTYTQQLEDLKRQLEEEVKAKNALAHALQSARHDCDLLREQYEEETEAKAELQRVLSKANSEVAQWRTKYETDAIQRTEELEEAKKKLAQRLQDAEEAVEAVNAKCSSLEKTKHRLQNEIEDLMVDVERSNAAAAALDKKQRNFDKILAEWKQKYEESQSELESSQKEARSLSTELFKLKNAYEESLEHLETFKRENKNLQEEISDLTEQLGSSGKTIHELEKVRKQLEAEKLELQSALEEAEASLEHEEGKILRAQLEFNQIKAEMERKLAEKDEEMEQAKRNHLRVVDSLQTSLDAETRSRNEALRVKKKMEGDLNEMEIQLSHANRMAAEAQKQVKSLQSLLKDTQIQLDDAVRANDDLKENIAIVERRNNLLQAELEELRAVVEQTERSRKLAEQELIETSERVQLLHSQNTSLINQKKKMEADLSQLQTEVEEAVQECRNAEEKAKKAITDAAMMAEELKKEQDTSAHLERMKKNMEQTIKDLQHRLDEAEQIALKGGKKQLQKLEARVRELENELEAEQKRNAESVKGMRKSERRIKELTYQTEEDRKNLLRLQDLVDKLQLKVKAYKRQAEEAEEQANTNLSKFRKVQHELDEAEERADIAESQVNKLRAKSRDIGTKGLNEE

Structure (SMILES) | Rabbit Psoas Y125 value (marked #) ([1]; concentration required to increase myosin ATP-ase activity by 25%) | Porcine Ventricle EC25 (Y75 value) [2] [µM] | Porcine Atria EC25 (Y75 value) [3] [µM] | Rabbit Psoas EC25 (Y75 value) [1] [µM]
C[C@H](NC(=O)Cn1c(=O)c2cc(F)ccc2n(C)c1=O)c1ccc(F)cc1F [Compound 404, (S)-N-(1-(2,4-difluorophenyl)ethyl)-2-(6-fluoro-1-methyl-2,4-dioxo-1,4-dihydroquinazolin-3(2H)-yl)acetamide] | 100^# ^ μM | 100 | 12.2 | –
C[C@H](NC(=O)Cn1c(=O)[nH]c2cc(C(F)(F)F)ccc2c1=O)c1ccc(F)cc1F [Compound 405, (S)-N-(1-(2,4-difluorophenyl)ethyl)-2-(2,4-dioxo-7-(trifluoromethyl)-1,4-dihydroquinazolin-3(2H)-yl)acetamide] | – | 100 | 100 | 100
C[C@H](NC(=O)Cn1c(=O)[nH]c2c(F)cccc2c1=O)c1ccc(F)cc1F [Compound 406, (S)-N-(1-(2,4-difluorophenyl)ethyl)-2-(8-fluoro-2,4-dioxo-1,4-dihydroquinazolin-3(2H)-yl)acetamide] | – | 100 | 63.31 | 12.297
C[C@H](NC(=O)Cn1c(=O)[nH]c2cc(Cl)ccc2c1=O)c1ccc(F)cc1F [Compound 407, (S)-2-(7-chloro-2,4-dioxo-1,4-dihydroquinazolin-3(2H)-yl)-N-(1-(2,4-difluorophenyl)ethyl)acetamide] | – | 100 | 0.3539 | 7.16
C[C@H](NC(=O)Cn1c(=O)[nH]c2c(Cl)cccc2c1=O)c1ccc(F)cc1F [Compound 408, (S)-2-(8-chloro-2,4-dioxo-1,4-dihydroquinazolin-3(2H)-yl)-N-(1-(2,4-difluorophenyl)ethyl)acetamide] | – | 100 | 100 | 100
CC(C)CN(C(=O)Cn1c(=O)[nH]c2ccccc2c1=O)C(C)c1ccc(F)cc1F (stereo not drawn) [Compound 506, N-(1-(2,4-difluorophenyl)ethyl)-2-(2,4-dioxo-1,4-dihydroquinazolin-3(2H)-yl)-N-isobutylacetamide] | – | 29.03 | 33.59 | 65.656
O=C(Cn1c(=O)[nH]c2ccccc2c1=O)NC(c1ccc(Cl)cc1)c1cccs1 (stereo not drawn) [Compound 515, N-((4-chlorophenyl)(thiophen-2-yl)methyl)-2-(2,4-dioxo-1,4-dihydroquinazolin-3(2H)-yl)acetamide] | – | 100 | 100 | 100
Cc1ccc(C(NC(=O)Cn2c(=O)[nH]c3ccccc3c2=O)c2ccccc2)cc1C (stereo not drawn) [Compound 516, N-((3,4-dimethylphenyl)(phenyl)methyl)-2-(2,4-dioxo-1,4-dihydroquinazolin-3(2H)-yl)acetamide] | – | 100 | 100 | 100
CC(NC(=O)Cn1c(=O)[nH]c2ccccc2c1=O)c1cc(F)ccc1N(C)C (stereo not drawn) [Compound 518, N-(1-(2-(dimethylamino)-5-fluorophenyl)ethyl)-2-(2,4-dioxo-1,4-dihydroquinazolin-3(2H)-yl)acetamide] | – | 100 | 100 | 100
CC(NC(=O)Cn1c(=O)[nH]c2ccccc2c1=O)c1cccc(F)c1 (stereo not drawn) [Compound 519, 2-(2,4-dioxo-1,4-dihydroquinazolin-3(2H)-yl)-N-(1-(3-fluorophenyl)ethyl)acetamide] | – | 100 | 79.37 | 100
COc1ccc(F)cc1C(C)NC(=O)Cn1c(=O)[nH]c2ccccc2c1=O (stereo not drawn) [Compound 520, 2-(2,4-dioxo-1,4-dihydroquinazolin-3(2H)-yl)-N-(1-(5-fluoro-2-methoxyphenyl)ethyl)acetamide] | – | 100 | 100 | 100
